Drawing on ChEMBL document CHEMBL1144040, “Inhibitors of anthrax lethal factor based upon N-oleoyldopamine” (Bioorg Med Chem Lett, 2008), this text covers Ki, IC50 and Activity for five molecules.

pIC50, pKi: −log10 of the molar value. Active and inactive are the calls of the source. No cut-off for these calls is given here.

Assay [1] concerns the target T1, Lethal factor (Bacillus anthracis, UniProt P15917).
T1 sequence (P15917 whole entry): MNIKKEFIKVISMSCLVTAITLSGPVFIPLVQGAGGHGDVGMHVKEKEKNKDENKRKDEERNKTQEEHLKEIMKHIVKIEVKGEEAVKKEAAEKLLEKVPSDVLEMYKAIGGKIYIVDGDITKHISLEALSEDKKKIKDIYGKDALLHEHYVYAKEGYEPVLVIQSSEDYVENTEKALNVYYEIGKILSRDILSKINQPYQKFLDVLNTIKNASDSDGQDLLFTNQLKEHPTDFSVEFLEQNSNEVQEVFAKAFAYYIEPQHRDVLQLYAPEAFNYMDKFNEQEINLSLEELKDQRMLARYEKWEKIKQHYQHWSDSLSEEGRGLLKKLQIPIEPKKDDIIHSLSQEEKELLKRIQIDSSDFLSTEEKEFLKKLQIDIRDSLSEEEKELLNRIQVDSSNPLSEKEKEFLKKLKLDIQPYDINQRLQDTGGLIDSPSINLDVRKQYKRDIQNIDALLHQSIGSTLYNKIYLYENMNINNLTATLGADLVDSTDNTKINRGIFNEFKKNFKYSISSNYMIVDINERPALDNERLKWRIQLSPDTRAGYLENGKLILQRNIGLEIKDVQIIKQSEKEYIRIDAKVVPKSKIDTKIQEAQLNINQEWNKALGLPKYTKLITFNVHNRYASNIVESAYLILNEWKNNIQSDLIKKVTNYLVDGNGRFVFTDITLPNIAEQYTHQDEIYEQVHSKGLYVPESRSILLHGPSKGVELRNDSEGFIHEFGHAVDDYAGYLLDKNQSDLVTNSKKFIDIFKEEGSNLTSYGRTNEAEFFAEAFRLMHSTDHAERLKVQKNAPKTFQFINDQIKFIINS
Description: Inhibition of Bacillus anthracis lethal factor by FRET assay.

Assay [2] addresses T1, Lethal factor. Description: Inhibition of Bacillus anthracis lethal factor by cell-based assay.
For assay [3], the system named is J774.A1. Put plainly: Inhibition of lethal factor induced toxicity in mouse J774A.1 macrophages after 4 hrs by MTT assay. It is filed as functional, cell-based. As to conditions: J774.A1, 4 h.
For assay [4], the target named is T2, Lethal factor (Bacillus anthracis) (UniProt P15917).
T2 sequence (whole entry): T1 sequence (P15917 whole entry)
Description: Inhibition of Bacillus anthracis lethal factor up to 100 uM by FRET assay.

One may read the pKi as −log10 of the Ki, conventionally taken in molar units. High values mean a small Ki, low ones a large Ki. Usually pIC50 stands for −log10 of the IC50, conventionally taken in molar units. For the molecule `CCCCCCCC/C=C\CCCCCCCC(=O)NCc1ccc(O)c(O)c1`, in assay [1], the pKi was 5.66. Further, the values for the pIC50 in assay [2] and in assay [3] were 4.82 and 5.37, respectively.

`CCCCCCCC/C=C\CCCCCCCC(=O)NCc1ccc(C(=O)NO)cc1` had a pKi in assay [1] of 5.21. The same molecule showed a pIC50 in assay [2] of 4.38.

As to `CCCCCC(=O)NCCc1ccc(O)c(O)c1`, the result in assay [4] was inactive.

Regarding `CCCCCCCC/C=C/CCCCCCCC(=O)NCCc1ccc(O)c(O)c1`, in assay [4], the result was inactive.

On to `CCCCCCCCCCCCCCCCCC(=O)NCCc1ccc(O)c(O)c1`, for which the outcome in assay [4] was inactive.
